# Calls of active or inactive are those of the source.
# What was measured:
# [1] = cytotoxicity toward NIH3T3 fibroblasts, dose response, counter-screen, cell-based, ATP luminescence, mouse fibroblasts (AID 2010); assay type: functional;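 note: cells exposed to compound for about 90 hours before reading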
# [2] = inhibitors of intracellular T. cruzi replication, confirmation, NIH3T3 host cells, beta-gal luminescence (AID 2044); assay type: functional, cell-based;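 note: intracellular parasites grown in NIH/3T3 mouse fibroblasts as host cells; luminescent beta-galactosidase reporter signal from transgenic T. cruzi replicating inside host cells; inhibitors lower the luminescence signal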
# Protein Wnt-3a = Protein Wnt-3a (Mus musculus, UniProt P27467); assay: Wnt3a-driven reporter signaling inhibition, dose response, selectivity assay for Gli-SUFU antagonist project, Wnt-LIGHT cells, luminescence (AID 651570); assay type: functional; conditions: read-out: IC50_Mean;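 note: Wnt-LIGHT reporter cells stimulated with conditioned medium from Wnt3a-producing cells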
# Protein Wnt-3a, sequence (P27467 whole entry): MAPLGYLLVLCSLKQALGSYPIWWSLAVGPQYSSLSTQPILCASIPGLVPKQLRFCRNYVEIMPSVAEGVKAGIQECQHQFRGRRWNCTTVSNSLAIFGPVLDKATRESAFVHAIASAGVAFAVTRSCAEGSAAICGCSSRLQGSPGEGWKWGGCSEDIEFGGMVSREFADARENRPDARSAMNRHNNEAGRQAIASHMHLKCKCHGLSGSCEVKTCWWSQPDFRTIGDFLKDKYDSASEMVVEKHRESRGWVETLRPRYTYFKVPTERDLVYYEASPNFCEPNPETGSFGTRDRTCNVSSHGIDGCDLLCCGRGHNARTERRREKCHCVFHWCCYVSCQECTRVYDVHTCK
# [3] = biological target: T1, High affinity choline transporter 1 (Homo sapiens, UniProt Q9GZV3); assay: CHT activators, dose response, cell-based, 10-point CRC, membrane potential dye (AID 602376); assay type: functional
# T1 sequence (Q9GZV3 whole entry): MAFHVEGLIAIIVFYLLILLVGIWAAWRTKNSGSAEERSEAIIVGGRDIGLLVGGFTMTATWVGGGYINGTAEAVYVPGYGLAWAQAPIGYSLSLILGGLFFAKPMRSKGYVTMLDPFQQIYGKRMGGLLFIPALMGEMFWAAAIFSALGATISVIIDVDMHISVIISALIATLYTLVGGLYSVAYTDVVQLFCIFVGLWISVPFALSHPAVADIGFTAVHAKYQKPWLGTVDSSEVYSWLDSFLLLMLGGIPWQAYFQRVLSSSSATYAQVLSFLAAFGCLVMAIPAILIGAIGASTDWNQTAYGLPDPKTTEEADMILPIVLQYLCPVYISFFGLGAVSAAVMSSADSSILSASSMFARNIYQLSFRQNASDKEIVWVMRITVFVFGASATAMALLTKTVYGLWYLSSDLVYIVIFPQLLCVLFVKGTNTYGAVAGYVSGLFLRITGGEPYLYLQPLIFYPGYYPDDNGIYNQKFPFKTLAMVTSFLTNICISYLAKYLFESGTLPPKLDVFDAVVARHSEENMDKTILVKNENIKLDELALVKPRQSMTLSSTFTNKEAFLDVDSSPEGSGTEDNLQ
# [4] = biological target: Potassium voltage-gated channel subfamily KQT member 2 (Rattus norvegicus, UniProt O88943); assay: KCNQ2 potassium channel inhibitors, dose response, cell-based, automated electrophysiology, set II, rat KCNQ2 (AID 588637); assay type: functional
# Potassium voltage-gated channel subfamily KQT member 2, sequence (O88943 whole entry): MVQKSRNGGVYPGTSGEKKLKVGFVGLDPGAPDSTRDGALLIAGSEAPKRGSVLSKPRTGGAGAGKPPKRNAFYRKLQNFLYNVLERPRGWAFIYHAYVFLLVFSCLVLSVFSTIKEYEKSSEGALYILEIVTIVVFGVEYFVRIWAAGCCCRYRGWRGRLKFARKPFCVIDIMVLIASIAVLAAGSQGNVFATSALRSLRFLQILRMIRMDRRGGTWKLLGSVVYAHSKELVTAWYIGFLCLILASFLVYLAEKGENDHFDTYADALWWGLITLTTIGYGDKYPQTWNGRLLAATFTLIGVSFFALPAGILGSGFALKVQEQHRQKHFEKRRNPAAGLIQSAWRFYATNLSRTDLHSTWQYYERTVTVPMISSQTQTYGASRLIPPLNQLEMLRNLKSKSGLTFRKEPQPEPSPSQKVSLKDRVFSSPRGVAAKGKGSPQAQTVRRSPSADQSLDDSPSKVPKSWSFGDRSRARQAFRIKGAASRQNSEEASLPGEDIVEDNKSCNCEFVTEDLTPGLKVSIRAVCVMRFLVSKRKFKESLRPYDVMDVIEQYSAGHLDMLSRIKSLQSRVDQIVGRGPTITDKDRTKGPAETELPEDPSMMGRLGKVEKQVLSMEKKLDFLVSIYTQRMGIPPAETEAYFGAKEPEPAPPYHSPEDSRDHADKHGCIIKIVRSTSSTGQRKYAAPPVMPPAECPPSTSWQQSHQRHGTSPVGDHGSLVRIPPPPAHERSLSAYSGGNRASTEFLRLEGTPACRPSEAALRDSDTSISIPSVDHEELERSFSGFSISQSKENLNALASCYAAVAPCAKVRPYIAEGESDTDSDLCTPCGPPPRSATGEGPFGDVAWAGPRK
# [5] = biological target: T1, High affinity choline transporter 1; assay: CHT inhibitors, dose response, cell-based, 10-point CRC, membrane potential dye (AID 588401); assay type: functional;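 note: membrane potential dye fluorescence of choline-evoked depolarization via CHT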
# [6] = biological target: T1, High affinity choline transporter 1; assay: CHT inhibitors, dose response, cell-based, 5-point CRC, membrane potential dye (AID 504840); assay type: functional
# [7] = biological target: T2, Apoptotic protease-activating factor 1 (Homo sapiens, UniProt O14727); assay: SAR analysis of small molecule Activators of Apaf-1 in a Fluorescent assay.; assay type: functional; conditions: read-out: EC50_Mean;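 note: caspase-3 cleavage of fluorogenic Rh110 DEVD substrate downstream of apoptosome activation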
# T2 sequence (O14727 whole entry): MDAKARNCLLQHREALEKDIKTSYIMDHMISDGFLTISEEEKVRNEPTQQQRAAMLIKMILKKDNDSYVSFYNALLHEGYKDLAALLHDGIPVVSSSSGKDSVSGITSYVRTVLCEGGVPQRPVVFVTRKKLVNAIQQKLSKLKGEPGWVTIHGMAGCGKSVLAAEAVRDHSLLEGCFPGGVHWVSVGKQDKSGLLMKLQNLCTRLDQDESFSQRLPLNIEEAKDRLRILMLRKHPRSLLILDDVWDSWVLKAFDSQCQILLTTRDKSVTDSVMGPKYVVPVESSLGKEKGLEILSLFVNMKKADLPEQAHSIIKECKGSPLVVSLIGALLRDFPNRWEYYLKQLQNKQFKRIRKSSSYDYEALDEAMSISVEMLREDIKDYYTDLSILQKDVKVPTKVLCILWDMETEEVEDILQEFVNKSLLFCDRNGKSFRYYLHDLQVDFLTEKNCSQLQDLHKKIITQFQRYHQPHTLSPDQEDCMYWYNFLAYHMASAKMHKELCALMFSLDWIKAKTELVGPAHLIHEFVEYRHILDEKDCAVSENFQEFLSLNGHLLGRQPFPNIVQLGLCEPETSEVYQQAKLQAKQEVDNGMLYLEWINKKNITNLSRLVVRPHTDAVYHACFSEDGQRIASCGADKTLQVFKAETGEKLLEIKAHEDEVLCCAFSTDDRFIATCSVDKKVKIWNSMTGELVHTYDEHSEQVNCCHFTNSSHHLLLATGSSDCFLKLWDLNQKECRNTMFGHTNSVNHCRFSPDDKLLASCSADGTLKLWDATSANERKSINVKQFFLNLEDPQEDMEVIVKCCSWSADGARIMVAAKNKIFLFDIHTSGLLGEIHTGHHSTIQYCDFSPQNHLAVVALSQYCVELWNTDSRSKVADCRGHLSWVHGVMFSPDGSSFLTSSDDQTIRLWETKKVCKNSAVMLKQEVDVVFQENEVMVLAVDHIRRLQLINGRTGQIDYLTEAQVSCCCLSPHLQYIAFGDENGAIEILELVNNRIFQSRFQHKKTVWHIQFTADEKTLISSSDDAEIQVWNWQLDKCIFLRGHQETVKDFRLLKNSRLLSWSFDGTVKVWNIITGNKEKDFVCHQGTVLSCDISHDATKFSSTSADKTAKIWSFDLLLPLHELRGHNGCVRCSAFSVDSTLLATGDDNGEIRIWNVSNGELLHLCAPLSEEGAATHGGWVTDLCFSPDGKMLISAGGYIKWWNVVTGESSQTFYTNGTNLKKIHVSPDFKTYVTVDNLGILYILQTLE
structure (smiles),measurement,setting,value
N=c1c2c(n(Cc3ccc(F)cc3)c3c1CCC3)CCCC2,EC50,[1],> 60 µM (not active)
same,EC50,[2],0.639 µM (active)
same,IC50,Protein Wnt-3a,13.8 µM (active)
COc1ccc(S(=O)(=O)N2c3ccccc3OCC2C)cc1 (stereo not drawn),EC50,[3],13.9 µM (active)
CC1CCN(C(=O)Cn2c(=O)n(Cc3ccc4c(c3)OCO4)c(=O)c3ccccc32)CC1,IC50,[4],3.11 µM (active)
CCN1CCCC1CNC(=O)c1ccc2c(c1)N(Cc1cccc(Cl)c1)C(=O)c1ccccc1S2(=O)=O (stereo not drawn),IC50,[5],4.22 µM (active)
same,IC50,[6],8.64 µM (active)
Cc1cc(NC(=O)C2CC(c3ccc(F)cc3)=NO2)n(-c2ccccc2)n1 (stereo not drawn),EC50,[7],> 100 µM (inactive)

# — ChEMBL document CHEMBL1201862, “PubChem BioAssay data set” (2004)
